According to patent publication US9113629B2, “4-amino-6-(4-substituted-phenyl)-picolinates and 6-amino-2-(4-substituted-phenyl)-pyrimidine-4-carboxylates and their use as herbicides” (DOW AGROSCIENCES LLC, priority 2013, dated 2015):
Like-named read-outs stand apart in the source and are kept apart here.

How the values were obtained:
[1] = tested on: HORSS: barley, including spring and winter (Hordeum vulgare); assay: Post-emergent Test III, herbicidal activity in wheat and barley; format: in vivo; conditions: for pest or weed control at 35 g/ha: 35 g ai/ha; for pest or weed control at 70 g/ha: 70 g ai/ha; for GR20 HORSS: probit analysis
Description: (§1) Post-emergent Test III. Seeds of the desired test plant species were planted in Sun Gro MetroMix® 306 planting mixture, which typically has a pH of 6.0 to 6.8 and an organic matter content of about 30 percent, in plastic pots with a surface area of 103.2 square centimeters (cm^2). When required to ensure good germination and healthy plants, a fungicide treatment and/or other chemical or physical treatment was applied. The plants were grown for 7-36 days (d) in a greenhouse with an approximate 14 hour (h) photoperiod which was maintained at about 18° C. during the day and 17° C. during the night. Nutrients and water were added on a regular basis and supplemental lighting was provided with overhead metal halide 1000-Watt lamps as necessary. The plants were employed for testing when they reached the second or third true leaf stage.
(§2) A weighed amount, determined by the highest rate to be tested, of each test compound was placed in a 25 mL glass vial and was dissolved in 4 mL of a 97:3 v/v mixture of acetone and DMSO to obtain concentrated stock solutions. […] The concentrated stock solutions obtained were diluted with 20 mL of an aqueous mixture containing acetone, water, isopropyl alcohol, DMSO, Agri-Dex crop oil concentrate, and X-77 surfactant in a 48:39:10:1.5:1.5:0.02 v/v ratio to obtain spray solutions containing the highest application rates. Additional application rates were obtained by serial dilution of 12 mL of the high rate solution into a solution containing 2 mL of 97:3 v/v mixture of acetone and DMSO and 10 mL of an aqueous mixture containing acetone, water, isopropyl alcohol, DMSO, Agri-Dex crop oil concentrate, and X-77 surfactant in a 48:39:10:1.5:1.5:0.02 v/v ratio to obtain ½×, ¼×, ⅛× and 1/16× rates of the high rate. Compound requirements are based upon a 12 mL application volume at a rate of 187 liters per hectare (L/ha). Formulated compounds were applied to the plant material with an overhead Mandel track sprayer equipped with 8002E nozzles calibrated to deliver 187 L/ha over an application area of 0.503 square meters at a spray height of 18 inches (43 cm) above the average plant canopy height. Control plants were sprayed in the same manner with the solvent blank.
(§3) The treated plants and control plants were placed in a greenhouse as described above and watered by subirrigation to prevent wash-off of the test compounds. After 21 d, the condition of the test plants as compared with that of the untreated plants was determined visually and scored on a scale of 0 to 100 percent where 0 corresponds to no injury and 100 corresponds to complete kill.
(§4) By applying the well-accepted probit analysis as described by J. Berkson in Journal of the American Statistical Society, 48, 565 (1953) and by D. Finney in “Probit Analysis” Cambridge University Press (1952), herbicidal injury of a specific compound at various rates can be used to calculate GR20, GR50, GR80 and GR90 values, which are defined as growth reduction factors that correspond to the effective dose of herbicide required to provide plant growth reduction (GR) of 20 percent, 50 percent, 80 percent and 90 percent, respectively. Probit analysis was applied to data collected from multiple dose rates of individual compounds utilizing the procedures explained in the following examples. The analysis of those dose rates is captured in the following tables.

[2] = tested on: KCHSC: kochia (Kochia scoparia); assay: as above; format: in vivo; conditions: for pest or weed control at 35 g/ha: 35 g ai/ha; for pest or weed control at 70 g/ha: 70 g ai/ha; for GR80 KCHSC / GR50 KCHSC: probit analysis
Description: as §1, §2, §3, §4

[3] = tested on: MATSS: scented mayweed (Matricaria chamomilla), pineappleweed (Matricaria matricarioides); assay: as above; format: in vivo; conditions: for pest or weed control at 35 g/ha: 35 g ai/ha; for pest or weed control at 70 g/ha: 70 g ai/ha; for GR50 MATSS / GR80 MATSS: probit analysis
Description: as §1, §2, §3, §4

[4] = tested on: TRZSS: wheat, including spring and winter (Triticum aestivum); assay: as above; format: in vivo; conditions: for GR20 TRZSS: probit analysis; for pest or weed control at 35 g/ha: 35 g ai/ha; for pest or weed control at 70 g/ha: 70 g ai/ha
Description: as §1, §2, §3, §4

[5] = as above; format: in vivo, Lolium multiflorum, Lolium rigidum; conditions: Lolium multiflorum, post-emergence, 504 h, read-out: Visual Growth Reduction (%) 21 Days After Application LOLSS
Description: as §1, §2, §3, §4

[6] = tested on: APESV: bentgrass (Apera spica-venti); assay: as above; format: in vivo
Description: as §1, §2, §3, §4

[7] = tested on: SETVI: green foxtail (Setaria viridis); assay: as above; format: in vivo
Description: as §1, §2, §3, §4

[8] = Hordeum vulgare, post-emergence, 504 h, Table 8, post-emergent, 21 d, read-out: Visual Growth Reduction (%) 21 Days After Application HORSS
[9] = Table 8, dose for 20 percent growth reduction, 21 d
[10] = Bassia scoparia, post-emergence, 504 h, Table 8, post-emergent, 21 d, read-out: Visual Growth Reduction (%) 21 Days After Application KCHSC
[11] = Table 8, dose for 80 percent growth reduction, 21 d
[12] = Matricaria chamomilla, post-emergence, 504 h, Table 8, post-emergent, 21 d, read-out: Visual Growth Reduction (%) 21 Days After Application MATSS
[13] = Table 8, dose for 50 percent growth reduction, 21 d
[14] = Triticum aestivum, post-emergence, 504 h, Table 8, post-emergent, 21 d, read-out: Visual Growth Reduction (%) 21 Days After Application TRZSS
[15] = probit analysis, dose for growth reduction of 50 percent, 21 days after application
[16] = probit analysis, dose for growth reduction of 80 percent, 21 days after application
[17] = Hordeum vulgare, post-emergence, 504 h, read-out: Visual Growth Reduction (%) 21 Days After Application HORSS
[18] = dose for growth reduction of 20 percent, 21 days after application, crop
[19] = Bassia scoparia, post-emergence, 504 h, read-out: Visual Growth Reduction (%) 21 Days After Application KCHSC
[20] = dose for growth reduction of 50 percent, 21 days after application
[21] = dose for growth reduction of 80 percent, 21 days after application
[22] = Matricaria chamomilla, post-emergence, 504 h, read-out: Visual Growth Reduction (%) 21 Days After Application MATSS
[23] = Triticum aestivum, post-emergence, 504 h, read-out: Visual Growth Reduction (%) 21 Days After Application TRZSS

COC(=O)c1nc(-c2ccc(Br)c(F)c2)nc(N)c1OC [Compound 171, Methyl 6-amino-2-(4-bromo-3-fluorophenyl)-5-methoxypyrimidine-4-carboxylate]
pest or weed control at 35 g/ha [1, 8]: 45 to 59%
pest or weed control at 70 g/ha [1, 8]: 60 to 74%
GR20 HORSS [1, 9]: 20 g ai/ha
pest or weed control at 35 g/ha [2, 10]: 85 to 94%
pest or weed control at 70 g/ha [2, 10]: 95 to 100%
GR80 KCHSC [2, 11]: 23 g ai/ha
pest or weed control at 35 g/ha [3, 12]: 30 to 44%
pest or weed control at 70 g/ha [3, 12]: 30 to 44%
GR50 MATSS [3, 13]: >140 g ai/ha
GR80 MATSS [3, 11]: >140 g ai/ha
GR20 TRZSS [4, 9]: 11 g ai/ha
pest or weed control at 35 g/ha [4, 14]: 75 to 84%
pest or weed control at 70 g/ha [4, 14]: 85 to 94%

Nc1cc(-c2ccc(I)cc2F)nc(C(=O)O)c1Cl [Compound 124]
pest or weed control at 35 g/ha [1, 8]: 85 to 94%
pest or weed control at 70 g/ha [1, 8]: 95 to 100%
GR20 HORSS [1, 9]: 1 g ai/ha
pest or weed control at 35 g/ha [2, 10]: 85 to 94%
pest or weed control at 70 g/ha [2, 10]: 85 to 94%
GR50 KCHSC [2, 13]: 3 g ai/ha
GR80 KCHSC [2, 11]: 29 g ai/ha
pest or weed control at 35 g/ha [3, 12]: 75 to 84%
pest or weed control at 70 g/ha [3, 12]: 85 to 94%
GR80 MATSS [3, 11]: 32 g ai/ha
GR20 TRZSS [4, 9]: 1 g ai/ha
pest or weed control at 35 g/ha [4, 14]: 85 to 94%
pest or weed control at 70 g/ha [4, 14]: 85 to 94%

COC(=O)c1nc(-c2ccc(OC(F)F)cc2)c(F)c(N)c1Cl [Compound 85]
pest or weed control at 35 g/ha ([5]; 35 g ai/ha): 0 to 29%
pest or weed control at 70 g/ha ([5]; 70 g ai/ha): 0 to 29%
pest or weed control at 140 g/ha ([5]; 140 g ai/ha): 0 to 29%
pest or weed control at 35 g/ha ([6]; Apera spica-venti, post-emergence, 504 h, 35 g ai/ha, read-out: Visual Growth Reduction (%) 21 Days After Application APESV): 0 to 29%
pest or weed control at 70 g/ha ([6]; Apera spica-venti, post-emergence, 504 h, 70 g ai/ha, read-out: Visual Growth Reduction (%) 21 Days After Application APESV): 0 to 29%
pest or weed control at 140 g/ha ([6]; Apera spica-venti, post-emergence, 504 h, 140 g ai/ha, read-out: Visual Growth Reduction (%) 21 Days After Application APESV): 0 to 29%
GR50 APESV [6, 15]: >140 g ai/ha
GR80 APESV [6, 16]: >140 g ai/ha
pest or weed control at 35 g/ha [1, 17]: 0 to 29%
pest or weed control at 70 g/ha [1, 17]: 30 to 44%
pest or weed control at 140 g/ha ([1]; Hordeum vulgare, post-emergence, 504 h, 140 g ai/ha, read-out: Visual Growth Reduction (%) 21 Days After Application HORSS): 60 to 74%
GR20 HORSS [1, 18]: 33 g ai/ha
pest or weed control at 35 g/ha [2, 19]: 0 to 29%
pest or weed control at 70 g/ha [2, 19]: 0 to 29%
pest or weed control at 140 g/ha ([2]; Bassia scoparia, post-emergence, 504 h, 140 g ai/ha, read-out: Visual Growth Reduction (%) 21 Days After Application KCHSC): 0 to 29%
GR50 KCHSC [2, 20]: >140 g ai/ha
GR80 KCHSC [2, 21]: >140 g ai/ha
pest or weed control at 35 g/ha [3, 22]: 0 to 29%
pest or weed control at 70 g/ha [3, 22]: 0 to 29%
pest or weed control at 140 g/ha ([3]; Matricaria chamomilla, post-emergence, 504 h, 140 g ai/ha, read-out: Visual Growth Reduction (%) 21 Days After Application MATSS): 0 to 29%
GR50 MATSS [3, 20]: 88 g ai/ha
GR80 MATSS [3, 21]: >140 g ai/ha
pest or weed control at 35 g/ha ([7]; Setaria viridis, post-emergence, 504 h, 35 g ai/ha, read-out: Visual Growth Reduction (%) 21 Days After Application SETVI): 0 to 29%
pest or weed control at 70 g/ha ([7]; Setaria viridis, post-emergence, 504 h, 70 g ai/ha, read-out: Visual Growth Reduction (%) 21 Days After Application SETVI): 0 to 29%
pest or weed control at 140 g/ha ([7]; Setaria viridis, post-emergence, 504 h, 140 g ai/ha, read-out: Visual Growth Reduction (%) 21 Days After Application SETVI): 0 to 29%
GR50 SETVI [7, 15]: >140 g ai/ha
GR80 SETVI [7, 16]: >140 g ai/ha
pest or weed control at 35 g/ha [4, 23]: 60 to 74%
pest or weed control at 70 g/ha [4, 23]: 60 to 74%
pest or weed control at 140 g/ha ([4]; Triticum aestivum, post-emergence, 504 h, 140 g ai/ha, read-out: Visual Growth Reduction (%) 21 Days After Application TRZSS): 60 to 74%
GR20 TRZSS [4, 18]: 1 g ai/ha

Nc1c(Cl)c(C(=O)O)nc(-c2ccc(Br)c(F)c2)c1Cl [Compound 43, 4-Amino-6-(4-bromo-3-fluorophenyl)-3,5-dichloropicolinic acid]
pest or weed control at 35 g/ha [1, 8]: 95 to 100%
pest or weed control at 70 g/ha [1, 8]: 95 to 100%
GR20 HORSS [1, 9]: 1 g ai/ha
pest or weed control at 35 g/ha [2, 10]: 60 to 74%
pest or weed control at 70 g/ha [2, 10]: 85 to 94%
GR50 KCHSC [2, 13]: 11 g ai/ha
GR80 KCHSC [2, 11]: 41 g ai/ha
pest or weed control at 35 g/ha [3, 12]: 85 to 94%
pest or weed control at 70 g/ha [3, 12]: 95 to 100%
GR50 MATSS [3, 13]: 3 g ai/ha
GR80 MATSS [3, 11]: 7 g ai/ha
GR20 TRZSS [4, 9]: 1 g ai/ha
pest or weed control at 35 g/ha [4, 14]: 85 to 94%
pest or weed control at 70 g/ha [4, 14]: 95 to 100%

COc1c(N)nc(-c2ccc(I)c(F)c2)nc1C(=O)O [Compound 37, 6-Amino-2-(3-fluoro-4-iodophenyl)-5-methoxypyrimidine-4-carboxylic acid]
pest or weed control at 35 g/ha [1, 8]: 60 to 74%
pest or weed control at 70 g/ha [1, 8]: 75 to 84%
GR20 HORSS [1, 9]: 5 g ai/ha
pest or weed control at 35 g/ha [2, 10]: 45 to 59%
pest or weed control at 70 g/ha [2, 10]: 60 to 74%
GR50 KCHSC [2, 13]: 34 g ai/ha
GR80 KCHSC [2, 11]: 119 g ai/ha
pest or weed control at 35 g/ha [3, 12]: 60 to 74%
pest or weed control at 70 g/ha [3, 12]: 60 to 74%
GR50 MATSS [3, 13]: 21 g ai/ha
GR80 MATSS [3, 11]: 77 g ai/ha
GR20 TRZSS [4, 9]: 3 g ai/ha
pest or weed control at 35 g/ha [4, 14]: 75 to 84%
pest or weed control at 70 g/ha [4, 14]: 85 to 94%
